In patent US7579365B2 (ZIOPHRAM Oncology, Inc., priority 1998, dated 2009):
Converted amounts (≈) assume the structure as drawn. “Also recorded” adds a separate entry of the source. Like-named read-outs stand apart in the source and are kept apart here.

Experiments:
KB [1] = assay: Hollow fiber assay on the nude mouse, KB; assay type: in vivo
Text: (§1) In the hollow fiber assay, both compounds were almost equally strongly active, while on L 1210 D-24851 was markedly more strongly active after oral and intraperitoneal administration than D-24241.

MCF-7 = assay: Hollow fiber assay on the nude mouse, MCF-7; assay type: in vivo
Text: as §1

[2] = in vivo; for Tox. i.p.: ip
L1210 cell line = assay: XTT proliferation test/cytotoxicity test, L1210 cell line; assay type: cell-based, mouse; conditions: for XTT EC50 L1210: L1210 tumor cells; for EC50: Mus musculus, L1210, L1210 tumor cells, read-out: XTT EC50 L1210
Protocol: (§2) In this test system, the effect of substances on the proliferation behavior of tumor cell lines is investigated. In the course of this, the cytotoxic potential of these substances is determined. The test method is described in Scudiero et al. 1988, Cancer Res. 48, 4827.
(§3) The following tumor cell lines were employed in the investigations:
(§4) The KB cell line an epidermal carcinoma of the oral cavity,
(§5) the L1210 cell line a lymphatic leukemia of the mouse, the LNCAP cell line a prostate carcinoma and the SK-OV-3 cell line an ovarian carcinoma.

LNCAP cell line = assay: XTT proliferation test/cytotoxicity test, LNCAP cell line; assay type: cell-based; conditions: LNCaP tumor cells; for EC50: Homo sapiens, read-out: XTT EC50 LNCaP
Protocol: as §2, §3, §4, §5

L1210 [3] = assay: Hollow fiber assay on the nude mouse, L1210; assay type: in vivo
Text: as §1

SK-OV-3 cell line = assay: XTT proliferation test/cytotoxicity test, SK-OV-3 cell line; assay type: cell-based; conditions: for EC50: Homo sapiens, SK-OV-3, SK-OV-3 tumor cells, read-out: XTT EC50 SK-OV-3
Protocol: as §2, §3, §4, §5

L1210 [4] = assay: L1210 leukemia model in vivo (% ILS, survival time); set-up: species or system mouse; conditions: for Antitumor action on L 1210 (mouse): oral and intraperitoneal administration
Text: as §1

KB cell line = assay: XTT proliferation test/cytotoxicity test, KB cell line; assay type: cell-based; conditions: KB tumor cells; for EC50: Homo sapiens, KB, read-out: XTT EC50 KB
Protocol: as §2, §3, §4, §5

KB [5] = assay: KB test on the nude mouse (% WHI); assay type: in vivo; conditions: for % WHI: KB
DNA = DNA fragmentation; conditions: after administration
Dunning tumor = Dunning tumor in the rat; assay type: in vivo; conditions: repeated oral administration, 7×100 mg/kg and 7×147 mg/kg p.o.
Hematopoiesis test = assay type: in vivo; conditions: intraperitoneal administration; listed as D-24851
SK-OV-3 = assay: In vivo % WHI printed in the SK-OV-3 column of Table 3
L1210 [6] = assay: L1210 leukemia model in vivo (% ILS, survival time); conditions: Mus musculus, L1210, iv

With `O=C(Nc1ccncc1)C(=O)c1cn(Cc2ccc(F)cc2)c2ccccc12` [Example 1, N-(Pyridin-4-yl)-[1-(4-fluorobenzyl)indol-3-yl]glyoxylamide] the “Hollow fiber intraperitoneal % INH” value (KB [1]; 4 × 15.8 mg/kg ip) was 46%, the “Hollow fiber subcutaneous % INH” value (KB [1]; 4 × 15.8 mg/kg ip) was 81% and the “Hollow fiber intraperitoneal % INH” value (MCF-7; 4 × 15.8 mg/kg ip) was “no action”. The “Hollow fiber subcutaneous % INH” value (MCF-7; 4 × 15.8 mg/kg ip) was 33%, the Tox. i.p. [2] was “≈158 i.p. mg/kg” and the LD50 (in vivo; LD50 1 × per os) was greater than 1000 mg/kg. The LD50 (in vivo; ip, LD50 1 × ip) was roughly 158 mg/kg, the “XTT EC50 L1210” value (L1210 cell line; listed as 1 (D 24241)) was 0.170 µg/mL and the “XTT EC50 L1210” value (L1210 cell line; listed as D 24241) was “≈0.17 μg/ml”. The “XTT EC50 L1210” value (L1210 cell line; listed as D-24241) was “L1210 ≈ 0.07 μg/ml”, the EC50 (LNCAP cell line) was greater than 31.6 µg/mL and the “XTT EC50 LNCaP” value (LNCAP cell line; listed as D 24241) was greater than 31.6 µg/mL. For the same compound, the “XTT EC50 LNCaP” value (LNCAP cell line; listed as D-24241) was “LNCAP > 31.6 μg/ml”, the “Hollow fiber intraperitoneal % INH” value (L1210 [3]; 4 × 15.8 mg/kg ip) was 43% and the “Hollow fiber subcutaneous % INH” value (L1210 [3]; 4 × 15.8 mg/kg ip) was 68%. The EC50 (SK-OV-3 cell line) was 0.17 µg/mL (≈ 0.455 µM), the “XTT EC50 SK-OV-3” value (SK-OV-3 cell line; SK-OV-3 tumor cells, listed as D-24241) was “SKOV3 ≈ 0.17 μg/ml” and the “% ILS L1210” value (L1210 [4]; 19 × 50 mg/kg per os, listed as D-24241, 50 mg/kg) was 50% ILS. For the same compound, the ILS at 464 mg/kg (L1210 [4]; Mus musculus, L1210, po, 1 × 464 mg/kg per os) was 44%, the ILS at 50 mg/kg (L1210 [4]; Mus musculus, L1210, po, 19 × 50 mg/kg per os) was 50% and the “Antitumor action on L 1210 (mouse)” value (L1210 [4]) was “strong dose-dependent antitumor action”. The EC50 (KB cell line) was 0.02 µg/mL (≈ 0.0536 µM), the “XTT EC50 KB” value (KB cell line; listed as D-24241) was “KB ≈ 0.02 μg/ml” and the “% WHI” value (KB [5]; 2 × 46.4 mg/kg ip) was 22%. The “% WHI” value (KB [5]; 2 × 215 mg/kg po) was 47% and the “Antitumor action in the KB test on the nude mouse” value (KB [5]) was “antitumor action”.

In the case of `O=C(Nc1ccncc1)C(=O)c1cn(Cc2ccc(Cl)cc2)c2ccccc12` [Example 13, N-(Pyridin-4-yl)-[1-(4-chlorobenzyl)indol-3-yl]glyoxylamide], the DNA fragmentation (DNA) is reported as “no DNA fragmentation”, the “Hollow fiber subcutaneous % INH” value (KB [1]; 4 × 46 mg/kg ip) is reported as 44% and the “Hollow fiber intraperitoneal % INH” value (KB [1]; 4 × 147 mg/kg ip) is reported as 12%. For the same compound, the “Hollow fiber subcutaneous % INH” value (KB [1]; 4 × 147 mg/kg ip) was 35%, the “Hollow fiber intraperitoneal % INH” value (MCF-7; 4 × 46 mg/kg ip) was 38% and the “Hollow fiber subcutaneous % INH” value (MCF-7; 4 × 46 mg/kg ip) was 47%. The “Hollow fiber intraperitoneal % INH” value (MCF-7; 4 × 147 mg/kg ip) was 68%, the “Hollow fiber subcutaneous % INH” value (MCF-7; 4 × 147 mg/kg ip) was 68% and the “Tumor growth in the Dunning tumor” value (Dunning tumor; listed as D24851) was “stoppage of tumor growth and in some animals even tumor regression”. For the same compound, the “Tumor growth in the Dunning tumor” value (Dunning tumor; listed as D-24851) was “Stoppage of tumor growth, in some animals even tumor regression”, the “LD50 1 × per os” value [2] was greater than 1000 mg/kg and the Tox. i.p. [2] was “≈1000 i.p. mg/kg”. The “Blood parameters in the hematopoiesis test” value (Hematopoiesis test) was “none of the blood parameters investigated were modified; also recorded: none of the blood parameters investigated were altered”, the LD50 (in vivo; LD50 1 × per os) was 1000 mg/kg and the LD50 (in vivo; ip, LD50 1 × ip) was greater than 1000 mg/kg. For the same compound, the EC50 (L1210 cell line) was roughly 0.017 µg/mL (≈ 0.0436 µM), the EC50 (LNCAP cell line; LNCaP) was roughly 0.03 µg/mL (≈ 0.077 µM) and the “Hollow fiber intraperitoneal % INH” value (L1210 [3]; 4 × 46 mg/kg ip) was 56%. The “Hollow fiber subcutaneous % INH” value (L1210 [3]; 4 × 46 mg/kg ip) was “no action”, the “Hollow fiber intraperitoneal % INH” value (L1210 [3]; 4 × 147 mg/kg ip) was 60% and the “Hollow fiber subcutaneous % INH” value (L1210 [3]; 4 × 147 mg/kg ip) was 67%. For the same compound, the “% WHI” value (SK-OV-3; 2 × 215 mg/kg po) was 18%, the “% WHI” value (SK-OV-3; 7 × 46 mg/kg ip) was 33% and the EC50 (SK-OV-3 cell line) was roughly 0.03 µg/mL (≈ 0.077 µM). For the same compound, the ILS at 464 mg/kg (L1210 [4]; Mus musculus, L1210, ip, 1 × 464 mg/kg ip) was 18%, the ILS at 681 mg/kg (L1210 [4]; Mus musculus, L1210, ip, 1 × 681 mg/kg ip) was 0% and the ILS at 147 mg/kg (L1210 [4]; Mus musculus, L1210, ip, 4 × 147 mg/kg ip) was 94%. The ILS at 215 mg/kg (L1210 [4]; Mus musculus, L1210, ip, 4 × 215 mg/kg ip) was 13%, the ILS at 100 mg/kg (L1210 [4]; Mus musculus, L1210, ip, 7 × 100 mg/kg ip) was 35% and the ILS at 147 mg/kg (L1210 [4]; Mus musculus, L1210, ip, 7 × 147 mg/kg ip) was 59%. It also gave an ILS at 681 mg/kg (L1210 [4]; Mus musculus, L1210, po, 1 × 681 mg/kg po) of 22%, an ILS at 215 mg/kg (L1210 [4]; Mus musculus, L1210, po, 4 × 215 mg/kg po) of 31% and an ILS at 100 mg/kg (L1210 [4]; Mus musculus, L1210, po, 7 × 100 mg/kg po) of 63%. The ILS at 147 mg/kg (L1210 [4]; Mus musculus, L1210, po, 7 × 147 mg/kg po) was 75%, the “Prolongation of the survival time, L1210” value (L1210 [4]; intraperitoneal or oral administration, 100 and 147 mg/kg multiple dose) was “distinct dose-dependent prolongation of the survival time” and the “Antitumor action on L 1210 (mouse)” value (L1210 [4]) was “strong dose-dependent antitumor action”. For the same compound, the EC50 (KB cell line) was roughly 0.017 µg/mL (≈ 0.0436 µM) and the “Antitumor action in the KB test on the nude mouse” value (KB [5]) was “antitumor action”.

With `CC(=O)O[C@H]1C(=O)[C@@]2(C)[C@H]([C@H](OC(=O)c3ccccc3)[C@]3(O)C[C@H](OC(=O)[C@H](O)[C@@H](NC(=O)c4ccccc4)c4ccccc4)C(C)=C1C3(C)C)[C@]1(OC(C)=O)CO[C@@H]1C[C@@H]2O` [Taxol, reference compound] the Tox. i.p. [2] was “≈158 i.p. mg/kg”, the ILS at 14.7 mg/kg (L1210 [6]; 1 × 14.7 mg/kg i.v.) was 22% and the ILS at 46.4 mg/kg (L1210 [6]; 1 × 46.4 mg/kg i.v.) was 61%. It also gave an EC50 (L1210 cell line) of less than 0.003 µg/mL, an EC50 (LNCAP cell line; LNCaP) of less than 0.003 µg/mL and an EC50 (SK-OV-3 cell line) of less than 0.003 µg/mL. For the same compound, the EC50 (KB cell line) was less than 0.003 µg/mL.
